Data from US7897582B2, “Oligonucleotide compositions and methods for the modulation of the expression of B7 protein” (Isis Pharmaceuticals, Inc., priority 2003, dated 2011).
Strand notation (5' to 3'): a small letter for the sugar, then the base; units joined by * are phosphorothioate-linked, units joined directly phosphodiester-linked; [ ] holds rarer units or linkages, { } end groups; capitals alone tell only the bases. e = 2'-O-(2-methoxyethyl) (MOE); [5mC] = 5-methylcytosine; d = 2'-deoxy (DNA)

test system: Human B7-1 mRNA; assay: Human B7-1 mRNA expression in electroporated, LPS-induced THP-1 cells; format: cell-based; conditions: THP-1 cells electroporated at 10 micromolar oligonucleotide, LPS 1 μg/ml 16 hours
Description: (§1) The human promonocytic leukaemia cell line, THP-1 (American Type Culture Collection, Manassas, Va.) was maintained in RPMI 1640 growth media supplemented with 10% fetal calf serum (FCS; Life Technologies, Rockville, Md.). A total of 1×10^7 cells were electroporated at an oligonucleotide concentration of 10 micromolar in 2 mm cuvettes, using an Electrocell Manipulator 600 instrument (Biotechnologies and Experimental Research, Inc.) employing 200 V, 1000 μF. Electroporated cells were then transferred to petri dishes and allowed to recover for 16 hrs. Cells were then induced with LPS at a final concentration of 1 μg/ml for 16 hours. RNA was isolated and processed as described in previous examples.

Row | Substance | % mRNA EXPRESSION [%] | % mRNA INHIBITION [%]
1 | 113489 (antisense e[5mC]*e[5mC]*e[5mC]*eT*e[5mC]*d[5mC]*dA*dG*dT*dG*dA*dT*dG*dT*dT*eT*eA*e[5mC]*eA*eA) [compound 113489] | 122 | –
2 | 113490 (antisense eG*eA*eA*eG*eA*d[5mC]*d[5mC]*d[5mC]*dT*d[5mC]*d[5mC]*dA*dG*dT*dG*eA*eT*eG*eT*eT) [compound 113490] | 183 | –
3 | 113491 (antisense e[5mC]*eG*eT*eA*eG*dA*dA*dG*dA*d[5mC]*d[5mC]*d[5mC]*dT*d[5mC]*d[5mC]*eA*eG*eT*eG*eA) [compound 113491] | 179 | –
4 | 113492 (antisense eT*eT*e[5mC]*e[5mC]*e[5mC]*dA*dG*dG*dT*dG*d[5mC]*dA*dA*dA*dA*e[5mC]*eA*eG*eG*e[5mC]) [compound 113492] | 27 | 73
5 | 113493 (antisense eT*eG*eG*e[5mC]*eT*dT*d[5mC]*dA*dG*dA*dT*dG*d[5mC]*dT*dT*eA*eG*eG*eG*eT) [compound 113493] | 488 | –
6 | 113494 (antisense e[5mC]*e[5mC]*eT*e[5mC]*e[5mC]*dG*dT*dG*dT*dG*dT*dG*dG*d[5mC]*d[5mC]*e[5mC]*eA*eT*eG*eG) [compound 113494] | 77 | 23
7 | 113495 (antisense eG*eG*eT*eG*eA*dT*dG*dT*dT*d[5mC]*d[5mC]*d[5mC]*dT*dG*d[5mC]*e[5mC]*eT*e[5mC]*e[5mC]*eG) [compound 113495] | 43 | 57
8 | 113496 (antisense eG*eA*eT*eG*eG*dT*dG*dA*dT*dG*dT*dT*d[5mC]*d[5mC]*d[5mC]*eT*eG*e[5mC]*e[5mC]*eT) [compound 113496] | 71 | 29
9 | 113497 (antisense eA*eG*eG*eT*eA*dT*dG*dG*dA*d[5mC]*dA*d[5mC]*dT*dT*dG*eG*eA*eT*eG*eG) [compound 113497] | 78 | 22
10 | 113498 (antisense eG*eA*eA*eA*eG*dA*d[5mC]*d[5mC]*dA*dG*d[5mC]*d[5mC]*dA*dG*d[5mC]*eA*e[5mC]*e[5mC]*eA*eA) [compound 113498] | 37 | 63
11 | 113499 (antisense e[5mC]*eA*eG*e[5mC]*eG*dT*dT*dG*d[5mC]*d[5mC]*dA*d[5mC]*dT*dT*d[5mC]*eT*eT*eT*e[5mC]*eA) [compound 113499] | 25 | 75
12 | 113500 (antisense eG*eT*eG*eA*e[5mC]*d[5mC]*dA*d[5mC]*dA*dG*dG*dA*d[5mC]*dA*dG*e[5mC]*eG*eT*eT*eG) [compound 113500] | 83 | 17
13 | 113501 (antisense eA*eG*eA*eT*eG*d[5mC]*dG*dA*dG*dT*dT*dT*dG*dT*dG*e[5mC]*e[5mC]*eA*eG*e[5mC]) [compound 113501] | 36 | 64
14 | 113502 (antisense e[5mC]*e[5mC]*eT*eT*eT*dT*dG*d[5mC]*d[5mC]*dA*dG*dT*dA*dG*dA*eT*eG*e[5mC]*eG*eA) [compound 113502] | 26 | 74
15 | 113503 (antisense e[5mC]*eG*eG*eT*eT*d[5mC]*dT*dT*dG*dT*dA*d[5mC]*dT*d[5mC]*dG*eG*eG*e[5mC]*e[5mC]*eA) [compound 113503] | 65 | 35
16 | 113504 (antisense e[5mC]*eG*e[5mC]*eA*eG*dA*dG*d[5mC]*d[5mC]*dA*dG*dG*dA*dT*d[5mC]*eA*e[5mC]*eA*eA*eT) [compound 113504] | 46 | 54
17 | 113505 (antisense e[5mC]*eT*eT*e[5mC]*eA*dG*d[5mC]*d[5mC]*dA*dG*dG*dT*dG*dT*dT*e[5mC]*e[5mC]*e[5mC]*eG*e[5mC]) [compound 113505] | 40 | 60
18 | 113506 (antisense eT*eA*eA*e[5mC]*eG*dT*d[5mC]*dA*d[5mC]*dT*dT*d[5mC]*dA*dG*d[5mC]*e[5mC]*eA*eG*eG*eT) [compound 113506] | 105 | –
19 | 113507 (antisense eT*eT*e[5mC]*eT*e[5mC]*d[5mC]*dA*dT*dT*dT*dT*d[5mC]*d[5mC]*dA*dA*e[5mC]*e[5mC]*eA*eG*eG) [compound 113507] | 36 | 64
20 | 113508 (antisense e[5mC]*eT*eG*eT*eT*dG*dT*dG*dT*dT*dG*dA*dT*dG*dG*e[5mC]*eA*eT*eT*eT) [compound 113508] | 117 | –

test system: Human B7-2 mRNA; assay: Human B7-2 mRNA expression in electroporated THP-1 cells induced with LPS and dibutyryl cAMP; format: cell-based; conditions: THP-1 cells electroporated at 10 micromolar oligonucleotide, LPS and dibutyryl cAMP (500 μM) 16 hours
Description: as §1, with “hrs” for “hrs.”, “and dibutyryl cAMP (500 μM)” for “at a final concentration of 1 μg/ml”

Row | Substance | % mRNA EXPRESSION [%] | % mRNA INHIBITION [%]
21 | 113145 (antisense eT*eG*eT*eG*eG*dG*d[5mC]*dT*dT*dT*dT*dT*dG*dT*dG*eA*eT*eG*eG*eA) [compound 113145] | 46 | 54
22 | 113146 (antisense eA*eA*eT*e[5mC]*eA*dT*dT*d[5mC]*d[5mC]*dT*dG*dT*dG*dG*dG*e[5mC]*eT*eT*eT*eT) [compound 113146] | 32 | 68
23 | 113147 (antisense e[5mC]*e[5mC]*eG*eT*eG*dT*dA*dT*dA*dG*dA*dT*dG*dA*dG*e[5mC]*eA*eG*eG*eT) [compound 113147] | 35 | 65
24 | 113148 (antisense eA*e[5mC]*e[5mC]*eG*eT*dG*dT*dA*dT*dA*dG*dA*dT*dG*dA*eG*e[5mC]*eA*eG*eG) [compound 113148] | 23 | 77
25 | 113149 (antisense eT*e[5mC]*eA*eT*e[5mC]*dT*dT*d[5mC]*dT*dT*dA*dG*dG*dT*dT*e[5mC]*eT*eG*eG*eG) [compound 113149] | 29 | 71
26 | 113150 (antisense eA*e[5mC]*eA*eA*eG*d[5mC]*dT*dG*dA*dT*dG*dG*dA*dA*dA*e[5mC]*eG*eT*e[5mC]*eG) [compound 113150] | 19 | 81
27 | 113151 (antisense eT*eG*e[5mC]*eT*e[5mC]*dG*dT*dA*dA*d[5mC]*dA*dT*d[5mC]*dA*dG*eG*eG*eA*eA*eT) [compound 113151] | 208 | –
28 | 113152 (antisense eA*eA*eG*eA*eT*dG*dG*dT*d[5mC]*dA*dT*dA*dT*dT*dG*e[5mC]*eT*e[5mC]*eG*eT) [compound 113152] | 89 | 11
29 | 113153 (antisense e[5mC]*eG*e[5mC]*eG*eT*d[5mC]*dT*dT*dG*dT*d[5mC]*dA*dG*dT*dT*eT*e[5mC]*e[5mC]*eA*eG) [compound 113153] | 19 | 81
30 | 113154 (antisense e[5mC]*eA*eG*e[5mC]*eT*dG*dT*dA*dA*dT*d[5mC]*d[5mC]*dA*dA*dG*eG*eA*eA*eT*eG) [compound 113154] | 63 | 37
31 | 113155 (antisense eG*eG*eG*e[5mC]*eT*dT*d[5mC]*dA*dT*d[5mC]*dA*dG*dA*dT*d[5mC]*eT*eT*eT*e[5mC]*eA) [compound 113155] | 13 | 87
32 | 113156 (antisense e[5mC]*eA*eT*eG*eT*dA*dT*d[5mC]*dA*d[5mC]*dT*dT*dT*dT*dG*eT*e[5mC]*eG*e[5mC]*eA) [compound 113156] | 83 | 17
33 | 113157 (antisense eA*eG*e[5mC]*e[5mC]*e[5mC]*d[5mC]*d[5mC]*dT*dT*dA*dT*dT*dA*d[5mC]*dT*e[5mC]*eA*eT*eG*eG) [compound 113157] | 13 | 87
34 | 113159 (antisense eA*eG*eT*e[5mC]*eT*d[5mC]*d[5mC]*dT*d[5mC]*dT*dT*dG*dG*d[5mC]*dA*eT*eA*e[5mC]*eG*eG) [compound 113159] | 43 | 57
35 | 113160 (antisense e[5mC]*e[5mC]*e[5mC]*eA*eT*dA*dA*dG*dT*dG*dT*dG*d[5mC]*dT*d[5mC]*eT*eG*eA*eA*eG) [compound 113160] | 09 | 91
